Measurements as given in PMC12383145, “Fluorescent Peptides Internalize HeLa Cells and Kill Multidrug-Resistant Clinical Bacterial Isolates” (Antibiotics, 2025).
“And” between values parts separate entries of the source, which are not always exact repeats. Identical values can stand only once. Residues, ends and D or L forms follow the SMILES beside them. *: point of attachment. RhodamineB = CCN(CC)c1ccc2c(-c3ccccc3C(=O)*)c3ccc(=[N+](CC)CC)cc-3oc2c1

What was measured:
Assay type in all cases: cell-based
[1] = Hemolysis assay
[2] = test system: erythrocytes; assay: Hemolysis assay; details: 2 h
[3] = test system: S. aureus ATCC 25923; details: ATCC 25923, 24 h
[4] = test system: P. aeruginosa ATCC 27853; details: ATCC 27853, 24 h
[5] = test system: E. faecalis ATCC 29212; details: ATCC 29212, 24 h
[6] = test system: E. coli ATCC 25922; details: ATCC 25922, 24 h
[7] = test system: K. pneumoniae ATCC 700603; details: ATCC 700603, 24 h
[8] = MTT cytotoxicity assay in HeLa cells
[9] = test system: HeLa cells; assay: Micrographs of cell morphology after peptide treatment; details: 100 µg/mL, 2 h, 37 °C
Text: Despite these pronounced morphological alterations, there was no evidence of cell rupture, membrane disintegration, or the presence of cell fragments, indicating the absence of necrotic processes. […] Green arrows indicate normal morphologies, such as cytoplasmic elongations and polygonal shapes. Red arrows indicate morphological changes induced by the peptides, including cell rounding, shrinkage, and loss of cytoplasmic projections. Scale bar: µm. The control corresponds to untreated cells.

Minimal inhibitory concentration (MIC) [3]: 26 µM
Minimal inhibitory concentration (MIC) [4]: > 105 µM
Minimal inhibitory concentration (MIC) [5]: 52 µM
Minimal inhibitory concentration (MIC) [6]: > 105 µM
Minimal inhibitory concentration (MIC) [7]: > 105 µM
Compound: CCN(CC)c1ccc2c(-c3ccccc3C(=O)N[C@@H](CCCNC(=N)N)C(=O)N[C@@H](Cc3c[nH]c4ccccc34)C(=O)N[C@@H](CCC(N)=O)C(=O)N[C@@H](Cc3c[nH]c4ccccc34)C(=O)N[C@@H](CCCNC(=N)N)C(=O)N[C@@H](Cc3c[nH]c4ccccc34)C(=O)N[C@@H](CCC(N)=O)C(=O)N[C@@H](Cc3c[nH]c4ccccc34)C(=O)N[C@@H](CCCNC(=N)N)C(N)=O)c3ccc(=[N+](CC)CC)cc-3oc2c1 [RhB-1, RhB-RWQWRWQWR] (RhodamineB-RWQWRWQWR-NH2)
selectivity ratio [1]: 0.2
hemolysis ([1]; Percentage of hemolysis): 19%
Therapeutic index [2]: 0.5
Minimal bactericidal concentration (MBC) [3]: 52 µM
Minimal bactericidal concentration (MBC) [4]: > 105 µM
Minimal bactericidal concentration (MBC) [5]: 52 µM
Minimal bactericidal concentration (MBC) [6]: > 105 µM
Minimal bactericidal concentration (MBC) [7]: > 105 µM
IC50 [8]: 117 µg/mL and 61 µM
morphological changes [9]: appeared smaller, rounded, and contained vacuoles
